Measured values taken from EPA's ToxValDB 9.5 (doi:10.2903/j.efsa.2009.194r).

How the values were obtained:
Pimephales promelas = conditions: chronic/long-term; duration: 36 days; growth
Canidae = conditions: chronic; duration: 1 years; oral; Dog Other; hematological
Rattus norvegicus = conditions: for NOAEL: hematological
Lepomis macrochirus = conditions: acute; duration: 96 hours; mortality
Colinus virginianus = conditions: for LD50: acute, oral, mortality
Tagia sp. = conditions: acute; duration: 14 days; mortality
Aphidius rhopalosiphi = conditions: chronic/long-term
Typhlodromus pyri = conditions: chronic/long-term
Apis mellifera = conditions: acute; duration: 48 hours; dermal; mortality
Daphnia magna = conditions: chronic/long-term; duration: 21 days; reproduction

## O=C(NC(=O)c1ccccc1Cl)Nc1ccc(OC(F)(F)F)cc1 [Triflumuron]
Pimephales promelas
  NOEC: ≥ 0.0228 mg/L
Canidae
  NOAEL: 1.42 mg/kg-day
Rattus norvegicus; acute, oral, mortality
  LD50: > 5000 mg/kg-day
Rattus norvegicus; chronic
  NOEC: 142 mg/kg-day
Rattus norvegicus; chronic, duration: 2 years
  NOAEL: 0.82 mg/kg-day
Rattus norvegicus; subchronic, duration: 90 days, oral
  NOAEL: 3.6 mg/kg-day
Lepomis macrochirus
  LC50: > 0.0208 µg/mL
Colinus virginianus; diet
  LD50: > 805 mg/kg-day
Colinus virginianus
  LD50: 561 mg/kg-day
Colinus virginianus; reproduction developmental
  NOEC: 1.65 mg/kg-day
Tagia sp.
  LC50: > 500 mg/kg
Aphidius rhopalosiphi; mortality
  LEL: 300 g/ha
Aphidius rhopalosiphi; reproduction
  LEL: 300 g/ha
Typhlodromus pyri; duration: 7 days, mortality
  LEL: 384 g/ha
Typhlodromus pyri; reproduction
  LEL: 384 g/ha
Apis mellifera
  LD50: > 200 µg/piece
Daphnia magna
  NOEC: 3.2e-05 mg/L
